Measurements published in patent publication US10508077B2 (FORMA Therapeutics, Inc., priority 2015, dated 2019).

Target: T1, Full length human recombinant HDAC8 protein (Homo sapiens, UniProt Q9BY41)
T1 construct: Full length human recombinant HDAC8 protein was expressed in baculoviral system; made in house
T1 sequence (Q9BY41 1-377): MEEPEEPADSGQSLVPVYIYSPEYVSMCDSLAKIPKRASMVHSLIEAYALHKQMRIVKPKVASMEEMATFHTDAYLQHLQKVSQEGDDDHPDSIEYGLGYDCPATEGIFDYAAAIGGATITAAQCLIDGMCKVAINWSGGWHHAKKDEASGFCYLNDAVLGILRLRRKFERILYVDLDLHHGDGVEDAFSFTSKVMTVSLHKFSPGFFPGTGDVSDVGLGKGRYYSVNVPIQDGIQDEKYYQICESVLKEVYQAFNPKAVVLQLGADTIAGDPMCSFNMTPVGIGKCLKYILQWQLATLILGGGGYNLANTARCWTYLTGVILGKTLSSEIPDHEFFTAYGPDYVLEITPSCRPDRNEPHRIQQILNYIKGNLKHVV
Experiment: In vitro histone deacetylase assay: enzymatic HDAC8 assay, electrophoretic mobility shift
Format: biochemical
Conditions: substrate RHKK(Ac)-NH2, 1 nM enzyme, compounds listed under IC50 range headings
Procedure, shortened: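 Baculovirus-expressed full-length human HDAC8 (1 nM) deacetylated 2 µM fluorescent RHKK(Ac)-NH2 peptide in pH 7.5 HEPES, 1% DMSO, at 25 °C, with 12 compound concentrations at 3× spacing. SDS-quenched; product and substrate resolved by microfluidic electrophoresis, P/(S+P) converted to percent inhibition, and IC50 obtained by 4-parameter fit.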

CC(C)(C)OC(=O)N1CC(=O)N(c2ccccc2/C=C/C(=O)NO)C1 [Example I-261, tert-butyl (E)-3-(2-(3-(hydroxyamino)-3-oxoprop-1-en-1-yl)phenyl)-4-oxoimidazolidine-1-carboxylate]
IC50: < 1000 nM

O=C(/C=C/c1ccccc1NC(=O)c1ccccc1CCc1ccccc1)NO [Example I-267, (E)-N-(2-(3-(hydroxyamino)-3-oxoprop-1-en-1-yl)phenyl)-2-phenethylbenzamide]
IC50: < 1000 nM

O=C(/C=C/c1ccccc1NC(=O)c1sc2ccccc2c1Cl)NO [Example I-269, (E)-3-chloro-N-(2-(3-(hydroxyamino)-3-oxoprop-1-en-1-yl)phenyl)benzo[b]thiophene-2-carboxamide]
IC50: < 1000 nM

Cc1oc(-c2ccccc2)cc1C(=O)Nc1ccccc1/C=C/C(=O)NO [Example I-271, (E)-N-(2-(3-(hydroxyamino)-3-oxoprop-1-en-1-yl)phenyl)-2-methyl-5-phenylfuran-3-carboxamide]
IC50: < 1000 nM

Cc1oc(-c2ccc(Cl)cc2)cc1C(=O)Nc1ccccc1/C=C/C(=O)NO [Example I-272, (E)-5-(4-chlorophenyl)-N-(2-(3-(hydroxyamino)-3-oxoprop-1-en-1-yl)phenyl)-2-methylfuran-3-carboxamide]
IC50: < 1000 nM

O=C(/C=C/c1ccccc1NC(=O)c1ccc(-n2cccc2)nc1)NO [Example I-273, (E)-N-(2-(3-(hydroxyamino)-3-oxoprop-1-en-1-yl)phenyl)-6-(1H-pyrrol-1-yl)nicotinamide]
IC50: < 1000 nM

CCCc1nc(-c2ccccc2)sc1C(=O)Nc1ccccc1/C=C/C(=O)NO [Example I-276, (E)-N-(2-(3-(hydroxyamino)-3-oxoprop-1-en-1-yl)phenyl)-2-phenyl-4-propylthiazole-5-carboxamide]
IC50: < 1000 nM

Cc1nc(-c2ccccc2)sc1C(=O)Nc1ccccc1/C=C/C(=O)NO [Example I-277, (E)-N-(2-(3-(hydroxyamino)-3-oxoprop-1-en-1-yl)phenyl)-4-methyl-2-phenylthiazole-5-carboxamide]
IC50: < 1000 nM

Cc1ccccc1C(C(=O)Nc1ccccc1/C=C/C(=O)NO)C(C)C (centres unmarked) [Example I-278, (E)-N-(2-(3-(hydroxyamino)-3-oxoprop-1-en-1-yl)phenyl)-3-methyl-2-(o-tolyl)butanamide]
IC50: < 1000 nM

O=C(/C=C/c1ccccc1NC(=O)C(c1ccccc1)C1CCCC1)NO (centres unmarked) [Example I-279, (E)-3-(2-(2-cyclopentyl-2-phenylacetamido)phenyl)-N-hydroxyacrylamide]
IC50: < 1000 nM

Cc1ccc(Sc2ncccc2C(=O)Nc2ccccc2/C=C/C(=O)NO)cc1 [Example I-280, (E)-N-(2-(3-(hydroxyamino)-3-oxoprop-1-en-1-yl)phenyl)-2-(p-tolylthio)nicotinamide]
IC50: < 1000 nM

Cc1nc(C(C)(C)C)sc1C(=O)Nc1ccccc1/C=C/C(=O)NO [Example I-283, (E)-2-(tert-butyl)-N-(2-(3-(hydroxyamino)-3-oxoprop-1-en-1-yl)phenyl)-4-methylthiazole-5-carboxamide]
IC50: < 1000 nM

COc1cc(-c2ccccc2)sc1C(=O)Nc1ccccc1/C=C/C(=O)NO [Example I-284, (E)-N-(2-(3-(hydroxyamino)-3-oxoprop-1-en-1-yl)phenyl)-3-methoxy-5-phenylthiophene-2-carboxamide]
IC50: < 1000 nM

Cn1cc(-c2ncc(C(=O)Nc3ccccc3/C=C/C(=O)NO)s2)cn1 [Example I-285, (E)-N-(2-(3-(hydroxyamino)-3-oxoprop-1-en-1-yl)phenyl)-2-(1-methyl-1H-pyrazol-4-yl)thiazole-5-carboxamide]
IC50: < 1000 nM

Cc1cc(C(=O)Nc2ccccc2/C=C/C(=O)NO)ccc1-n1cnnn1 [Example I-286, (E)-N-(2-(3-(hydroxyamino)-3-oxoprop-1-en-1-yl)phenyl)-3-methyl-4-(1H-tetrazol-1-yl)benzamide]
IC50: < 1000 nM

O=C(/C=C/c1ccccc1NC(=O)c1ccc(Cn2nnc3ccccc32)cc1)NO [Example I-287, (E)-4-((1H-benzo[d][1,2,3]triazol-1-yl)methyl)-N-(2-(3-(hydroxyamino)-3-oxoprop-1-en-1-yl)phenyl)benzamide]
IC50: < 1000 nM

Cc1nc(C(C)C(=O)N2CCN(c3ccccc3/C=C/C(=O)NO)CC2)cs1 (centres unmarked) [Example I-289, (E)-N-hydroxy-3-(2-(4-(2-(2-methylthiazol-4-yl)propanoyl)piperazin-1-yl)phenyl)acrylamide]
IC50: < 1000 nM

O=C(/C=C/c1ccccc1N1Cc2cc(Cl)c(Cl)cc2C1)NO [Example I-290, (E)-3-(2-(5,6-dichloroisoindolin-2-yl)phenyl)-N-hydroxyacrylamide]
IC50: < 1000 nM

CC(C(=O)N1CCN(c2ccccc2/C=C/C(=O)NO)CC1)c1ccc(Cl)cc1 (centres unmarked) [Example I-291, (E)-3-(2-(4-(2-(4-chlorophenyl)propanoyl)piperazin-1-yl)phenyl)-N-hydroxyacrylamide]
IC50: < 1000 nM

O=C(/C=C/c1ccccc1N1CCN(C(=O)C2(c3ccc(Cl)cc3)CC2)CC1)NO [Example I-294, (E)-3-(2-(4-(1-(4-chlorophenyl)cyclopropane-1-carbonyl)piperazin-1-yl)phenyl)-N-hydroxyacrylamide]
IC50: < 1000 nM

O=C(/C=C/c1ccccc1N1CCN(C(=O)Cc2cccnc2)CC1)NO [Example I-295, (E)-N-hydroxy-3-(2-(4-(2-(pyridin-3-yl)acetyl)piperazin-1-yl)phenyl)acrylamide]
IC50: < 1000 nM

O=C(/C=C/c1ccccc1N1CCN(C(=O)Cc2ccccn2)CC1)NO [Example I-296, (E)-N-hydroxy-3-(2-(4-(2-(pyridin-2-yl)acetyl)piperazin-1-yl)phenyl)acrylamide]
IC50: < 1000 nM

CC(Cc1ccccc1)C(=O)N1CCN(c2ccccc2/C=C/C(=O)NO)CC1 (centres unmarked) [Example I-297, (E)-N-hydroxy-3-(2-(4-(2-methyl-3-phenylpropanoyl)piperazin-1-yl)phenyl)acrylamide]
IC50: < 1000 nM

O=C(/C=C/c1ccccc1N1CCN(CCc2ccc(Cl)cc2)CC1)NO [Example I-299, (E)-3-(2-(4-(4-chlorophenethyl)pipera-zin-1-yl)phenyl)-N-hydroxyacrylamide]
IC50: < 1000 nM

CC(CN1CCN(c2ccccc2/C=C/C(=O)NO)CC1)c1ccccc1 (centres unmarked) [Example I-300, (E)-N-hydroxy-3-(2-(4-(2-phenylpropyl)piperazin-1-yl)phenyl)acrylamide]
IC50: < 1000 nM

CC(C)(C)OC(=O)NC1CCN(c2ccccc2/C=C/C(=O)NO)C1 (centres unmarked) [Example I-301, tert-butyl (E)-(1-(2-(3-(hydroxyamino)-3-oxoprop-1-en-1-yl)phenyl)pyrrolidin-3-yl)carbamate]
IC50: < 1000 nM

O=C(/C=C/c1ccccc1N1CCN(c2ccccc2)C1=O)NO [Example I-302, (E)-N-hydroxy-3-(2-(2-oxo-3-phenylimidazolidin-1-yl)phenyl)acrylamide]
IC50: < 1000 nM

O=C(/C=C/c1ccccc1NC(=O)c1ccnc(N2CCOCC2)c1)NO [Example I-305, (E)-N-(2-(3-(hydroxyamino)-3-oxoprop-1-en-1-yl)phenyl)-2-morpholinoisonicotinamide]
IC50: < 1000 nM

O=C(/C=C/c1ccccc1N1Cc2ccccc2C1=O)NO [Example I-308, (E)-N-hydroxy-3-(2-(1-oxoisoindolin-2-yl)phenyl)acrylamide]
IC50: < 1000 nM
